According to ChEMBL document CHEMBL5465560, “Selectivity Literature for EUbOPEN Chemogenomic Library” (2024):

What was measured:
[1] = biological target: RAC-beta serine/threonine-protein kinase (Homo sapiens) (UniProt P31751); assay: Selectivity interaction (KinomeScan (DiscoverX)) EUB0001049a AKT2; conditions: at 1 µM
[2] = biological target: MAP kinase-activated protein kinase 2 (Homo sapiens, UniProt P49137); assay: Selectivity interaction (Kinase panel (literature)) EUB0001199aCl MAPKAPK2; conditions: at 1 µM
[3] = biological target: Mitogen-activated protein kinase 11 (Homo sapiens) (UniProt Q15759); assay: Selectivity interaction (KinomeScan (DiscoverX)) EUB0000229b MAPK11; conditions: at 10 µM
[4] = biological target: Cyclin-dependent kinase 2 (Homo sapiens, UniProt P24941); assay: Selectivity interaction (Kinase panel (DSF assay)) EUB0001559a CDK2
[5] = biological target: Serine/threonine-protein kinase 26 (Homo sapiens, UniProt Q9P289); assay: Selectivity interaction (ActivX KiNativ screen (kinase selectivity in THP-1 cell lysates)) EUB0000639a STK26; assay type: subcellular; conditions: lysate
[6] = biological target: Tyrosine-protein kinase Lyn (Homo sapiens, UniProt P07948); assay: Selectivity interaction (Kinase panel (Invitrogen)) EUB0000639a LYN; conditions: at 200 nM
[7] = biological target: Serine/threonine-protein kinase pim-1 (Homo sapiens, UniProt P11309); assay: Selectivity interaction (Kinase panel (Invitrogen)) EUB0000639a PIM1; conditions: at 200 nM
[8] = biological target: Mitogen-activated protein kinase kinase kinase kinase 5 (Homo sapiens) (UniProt Q9Y4K4); assay: Selectivity interaction (Ambit KINOMEscan and KiNATiv profiling in Jurkat cells) EUB0000090b MAP4K5; assay type: cell-based; conditions: at 1 µM
[9] = biological target: T1, Tyrosine-protein kinase Mer (Homo sapiens) (UniProt Q12866); assay: Selectivity interaction (Ambit KINOMEscan and KiNATiv profiling in Jurkat cells) EUB0000090b MERTK; assay type: cell-based; conditions: at 1 µM
T1 sequence (whole entry): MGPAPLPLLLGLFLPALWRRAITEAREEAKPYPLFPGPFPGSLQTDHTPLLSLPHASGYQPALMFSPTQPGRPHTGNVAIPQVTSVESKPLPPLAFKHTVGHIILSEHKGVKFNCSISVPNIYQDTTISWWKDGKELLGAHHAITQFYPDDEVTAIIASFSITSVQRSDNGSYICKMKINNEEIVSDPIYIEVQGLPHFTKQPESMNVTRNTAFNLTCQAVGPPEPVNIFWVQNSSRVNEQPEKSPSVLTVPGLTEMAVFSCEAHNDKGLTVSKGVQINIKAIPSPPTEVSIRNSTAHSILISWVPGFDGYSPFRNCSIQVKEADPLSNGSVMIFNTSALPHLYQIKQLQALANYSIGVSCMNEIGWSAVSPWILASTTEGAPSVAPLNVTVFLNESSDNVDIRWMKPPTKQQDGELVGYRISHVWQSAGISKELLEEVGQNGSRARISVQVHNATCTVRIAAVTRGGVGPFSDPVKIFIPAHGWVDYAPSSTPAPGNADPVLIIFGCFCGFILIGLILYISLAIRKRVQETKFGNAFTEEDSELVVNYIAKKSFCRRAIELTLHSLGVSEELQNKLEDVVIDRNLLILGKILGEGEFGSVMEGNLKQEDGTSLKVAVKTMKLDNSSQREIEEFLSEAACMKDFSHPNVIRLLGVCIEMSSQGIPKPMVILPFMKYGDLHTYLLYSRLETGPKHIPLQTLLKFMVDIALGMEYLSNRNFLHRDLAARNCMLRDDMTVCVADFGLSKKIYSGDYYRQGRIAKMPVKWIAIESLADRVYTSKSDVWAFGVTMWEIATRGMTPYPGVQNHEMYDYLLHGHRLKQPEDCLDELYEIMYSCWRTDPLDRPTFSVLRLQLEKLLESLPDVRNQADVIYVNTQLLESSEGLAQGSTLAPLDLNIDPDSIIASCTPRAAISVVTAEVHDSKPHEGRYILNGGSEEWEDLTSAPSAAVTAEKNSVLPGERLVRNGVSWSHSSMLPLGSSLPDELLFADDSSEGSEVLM

[10] = biological target: T2, Hormonally up-regulated neu tumor-associated kinase (Homo sapiens) (UniProt P57058); assay: Selectivity interaction (KinomeScan (DiscoverX)) EUB0000045b HUNK
T2 sequence (whole entry): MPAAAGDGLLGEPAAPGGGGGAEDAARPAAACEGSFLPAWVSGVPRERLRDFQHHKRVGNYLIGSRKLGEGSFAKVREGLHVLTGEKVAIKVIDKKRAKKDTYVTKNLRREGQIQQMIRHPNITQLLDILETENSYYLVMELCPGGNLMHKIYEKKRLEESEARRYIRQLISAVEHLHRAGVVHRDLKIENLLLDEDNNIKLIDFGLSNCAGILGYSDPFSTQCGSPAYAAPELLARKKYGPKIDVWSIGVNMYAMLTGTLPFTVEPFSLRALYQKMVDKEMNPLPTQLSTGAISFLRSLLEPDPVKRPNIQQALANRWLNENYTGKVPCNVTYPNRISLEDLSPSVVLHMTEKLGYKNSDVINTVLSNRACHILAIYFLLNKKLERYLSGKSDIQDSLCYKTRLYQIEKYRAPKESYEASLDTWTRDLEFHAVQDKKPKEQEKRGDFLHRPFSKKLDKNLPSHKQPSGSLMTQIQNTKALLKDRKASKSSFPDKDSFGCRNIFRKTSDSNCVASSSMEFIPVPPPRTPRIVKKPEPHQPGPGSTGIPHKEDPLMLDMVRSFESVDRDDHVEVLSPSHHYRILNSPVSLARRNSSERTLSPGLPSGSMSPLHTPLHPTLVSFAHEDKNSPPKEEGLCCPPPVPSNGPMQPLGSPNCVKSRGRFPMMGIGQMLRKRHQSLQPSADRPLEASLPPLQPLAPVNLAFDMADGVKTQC

[11] = test system: Mast/stem cell growth factor receptor Kit (Homo sapiens), P10721 [A829P]; conditions: at 10 µM
[12] = biological target: Calcium/calmodulin-dependent protein kinase type II subunit alpha (Homo sapiens, UniProt Q9UQM7); assay: Selectivity interaction (KinomeScan (DiscoverX)) EUB0000655a CAMK2A; conditions: at 10 µM
[13] = biological target: Polycomb protein SUZ12 (Homo sapiens) (UniProt Q15022); assay: Selectivity interaction (Methyltransferase screen (radiometric assays, panel of 8 PRMTs, 21 protein lysine methyltransferases, 3 DNA methyltransferases, and one RNA methyltransferase)) EUB0000272b SUZ12
Chain of Polycomb protein SUZ12 (Homo sapiens) (Q15022 whole entry): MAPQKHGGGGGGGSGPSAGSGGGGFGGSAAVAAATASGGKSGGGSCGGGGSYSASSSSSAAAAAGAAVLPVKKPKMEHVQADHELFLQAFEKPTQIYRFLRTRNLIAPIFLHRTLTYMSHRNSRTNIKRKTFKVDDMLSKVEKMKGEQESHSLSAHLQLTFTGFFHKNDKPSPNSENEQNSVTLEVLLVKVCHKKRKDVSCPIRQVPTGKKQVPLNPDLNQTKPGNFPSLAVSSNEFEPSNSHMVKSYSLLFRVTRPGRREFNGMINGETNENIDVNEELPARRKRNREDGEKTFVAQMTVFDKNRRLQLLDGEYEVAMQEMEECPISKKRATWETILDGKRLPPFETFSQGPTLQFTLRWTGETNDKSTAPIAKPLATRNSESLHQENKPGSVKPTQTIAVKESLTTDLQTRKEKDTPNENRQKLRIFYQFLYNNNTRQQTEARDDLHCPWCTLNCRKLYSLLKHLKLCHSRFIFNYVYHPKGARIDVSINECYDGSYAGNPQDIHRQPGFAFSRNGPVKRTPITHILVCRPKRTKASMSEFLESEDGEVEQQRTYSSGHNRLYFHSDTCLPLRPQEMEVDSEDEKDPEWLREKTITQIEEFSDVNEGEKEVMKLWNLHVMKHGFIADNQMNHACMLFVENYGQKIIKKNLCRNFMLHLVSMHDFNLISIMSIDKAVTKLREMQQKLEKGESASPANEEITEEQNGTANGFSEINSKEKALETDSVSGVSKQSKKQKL

Chain of Serine/threonine-protein kinase 26 (Q9P289 2-416 limits assumed): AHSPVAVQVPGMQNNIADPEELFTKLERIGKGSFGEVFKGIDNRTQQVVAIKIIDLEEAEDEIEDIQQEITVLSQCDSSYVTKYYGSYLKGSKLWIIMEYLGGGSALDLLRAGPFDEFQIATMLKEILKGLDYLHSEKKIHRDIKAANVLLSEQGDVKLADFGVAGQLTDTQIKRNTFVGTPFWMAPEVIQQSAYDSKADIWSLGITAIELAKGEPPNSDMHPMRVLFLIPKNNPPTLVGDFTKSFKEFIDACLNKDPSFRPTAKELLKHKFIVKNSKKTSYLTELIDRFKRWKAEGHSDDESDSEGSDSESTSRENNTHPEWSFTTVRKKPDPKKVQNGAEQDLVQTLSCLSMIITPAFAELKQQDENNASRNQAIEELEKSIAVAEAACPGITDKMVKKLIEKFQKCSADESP
Chain of Mitogen-activated protein kinase kinase kinase kinase 5 (Homo sapiens) (Q9Y4K4 whole entry, looked up): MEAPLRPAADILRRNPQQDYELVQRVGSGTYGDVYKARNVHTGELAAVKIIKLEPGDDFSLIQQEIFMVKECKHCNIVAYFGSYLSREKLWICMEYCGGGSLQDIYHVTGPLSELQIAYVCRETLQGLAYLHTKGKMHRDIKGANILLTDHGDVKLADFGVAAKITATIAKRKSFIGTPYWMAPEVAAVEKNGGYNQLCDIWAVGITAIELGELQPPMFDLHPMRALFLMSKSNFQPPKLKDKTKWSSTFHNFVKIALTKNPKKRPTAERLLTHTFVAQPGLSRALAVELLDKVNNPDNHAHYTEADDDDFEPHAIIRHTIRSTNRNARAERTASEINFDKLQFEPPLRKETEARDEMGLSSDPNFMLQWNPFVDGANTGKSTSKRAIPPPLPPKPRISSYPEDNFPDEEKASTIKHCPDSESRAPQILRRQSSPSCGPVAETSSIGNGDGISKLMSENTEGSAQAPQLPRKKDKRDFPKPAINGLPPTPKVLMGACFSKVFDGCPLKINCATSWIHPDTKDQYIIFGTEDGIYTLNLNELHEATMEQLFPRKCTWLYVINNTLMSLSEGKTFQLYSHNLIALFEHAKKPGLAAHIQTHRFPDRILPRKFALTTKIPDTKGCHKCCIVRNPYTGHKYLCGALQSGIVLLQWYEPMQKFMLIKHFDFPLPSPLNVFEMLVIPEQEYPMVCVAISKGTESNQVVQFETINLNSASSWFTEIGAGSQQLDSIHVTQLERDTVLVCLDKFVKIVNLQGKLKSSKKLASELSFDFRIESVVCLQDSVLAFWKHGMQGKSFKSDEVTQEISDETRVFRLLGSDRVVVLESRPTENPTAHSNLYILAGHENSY
Chain of Mitogen-activated protein kinase 11 (Homo sapiens) (Q15759 whole entry): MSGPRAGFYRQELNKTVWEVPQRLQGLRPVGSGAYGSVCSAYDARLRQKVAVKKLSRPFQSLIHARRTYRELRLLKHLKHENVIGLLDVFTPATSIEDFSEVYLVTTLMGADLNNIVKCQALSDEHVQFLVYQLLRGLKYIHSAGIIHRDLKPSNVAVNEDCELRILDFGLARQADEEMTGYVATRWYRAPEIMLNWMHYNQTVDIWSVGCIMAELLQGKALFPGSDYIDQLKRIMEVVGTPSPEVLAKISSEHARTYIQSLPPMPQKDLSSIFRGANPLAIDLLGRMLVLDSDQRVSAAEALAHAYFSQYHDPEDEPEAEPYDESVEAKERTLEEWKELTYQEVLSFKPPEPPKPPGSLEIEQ
Chain of Serine/threonine-protein kinase pim-1 (P11309 whole entry, looked up): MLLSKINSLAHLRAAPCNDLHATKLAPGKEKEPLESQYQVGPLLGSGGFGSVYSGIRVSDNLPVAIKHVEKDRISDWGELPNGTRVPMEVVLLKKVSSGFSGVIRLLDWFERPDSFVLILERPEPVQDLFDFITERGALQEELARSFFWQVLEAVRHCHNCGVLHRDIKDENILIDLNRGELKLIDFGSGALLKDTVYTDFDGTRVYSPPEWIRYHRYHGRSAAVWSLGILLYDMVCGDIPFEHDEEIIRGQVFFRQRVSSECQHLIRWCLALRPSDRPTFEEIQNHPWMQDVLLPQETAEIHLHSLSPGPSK
Chain of Mast/stem cell growth factor receptor Kit (Homo sapiens), P10721 [A829P] (P10721 whole entry A829P): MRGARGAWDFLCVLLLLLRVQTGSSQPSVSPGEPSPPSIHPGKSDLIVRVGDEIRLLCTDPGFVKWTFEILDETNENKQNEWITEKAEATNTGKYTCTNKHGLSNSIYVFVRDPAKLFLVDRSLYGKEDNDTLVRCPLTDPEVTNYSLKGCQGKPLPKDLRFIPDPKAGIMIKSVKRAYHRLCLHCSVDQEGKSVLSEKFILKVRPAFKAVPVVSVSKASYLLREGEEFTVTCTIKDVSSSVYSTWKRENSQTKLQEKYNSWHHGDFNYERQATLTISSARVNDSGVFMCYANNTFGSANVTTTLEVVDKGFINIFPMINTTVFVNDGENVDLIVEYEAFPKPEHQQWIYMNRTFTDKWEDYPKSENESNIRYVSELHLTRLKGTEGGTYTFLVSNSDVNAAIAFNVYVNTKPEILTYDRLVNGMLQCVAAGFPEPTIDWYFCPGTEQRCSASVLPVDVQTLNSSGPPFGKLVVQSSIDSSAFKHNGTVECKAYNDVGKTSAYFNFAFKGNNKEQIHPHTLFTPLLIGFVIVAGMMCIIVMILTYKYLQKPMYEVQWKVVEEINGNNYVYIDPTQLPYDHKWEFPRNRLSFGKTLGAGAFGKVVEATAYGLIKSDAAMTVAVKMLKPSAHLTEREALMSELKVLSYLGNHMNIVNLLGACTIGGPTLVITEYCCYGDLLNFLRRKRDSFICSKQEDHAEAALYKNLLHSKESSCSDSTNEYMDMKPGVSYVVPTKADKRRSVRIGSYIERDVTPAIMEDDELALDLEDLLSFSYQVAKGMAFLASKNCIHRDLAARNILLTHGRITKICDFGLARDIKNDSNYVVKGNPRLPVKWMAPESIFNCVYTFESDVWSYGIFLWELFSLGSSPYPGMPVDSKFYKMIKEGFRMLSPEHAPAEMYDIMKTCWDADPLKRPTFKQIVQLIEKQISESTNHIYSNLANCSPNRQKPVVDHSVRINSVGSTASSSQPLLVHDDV
Chain of Tyrosine-protein kinase Lyn (P07948 2-512 limits assumed): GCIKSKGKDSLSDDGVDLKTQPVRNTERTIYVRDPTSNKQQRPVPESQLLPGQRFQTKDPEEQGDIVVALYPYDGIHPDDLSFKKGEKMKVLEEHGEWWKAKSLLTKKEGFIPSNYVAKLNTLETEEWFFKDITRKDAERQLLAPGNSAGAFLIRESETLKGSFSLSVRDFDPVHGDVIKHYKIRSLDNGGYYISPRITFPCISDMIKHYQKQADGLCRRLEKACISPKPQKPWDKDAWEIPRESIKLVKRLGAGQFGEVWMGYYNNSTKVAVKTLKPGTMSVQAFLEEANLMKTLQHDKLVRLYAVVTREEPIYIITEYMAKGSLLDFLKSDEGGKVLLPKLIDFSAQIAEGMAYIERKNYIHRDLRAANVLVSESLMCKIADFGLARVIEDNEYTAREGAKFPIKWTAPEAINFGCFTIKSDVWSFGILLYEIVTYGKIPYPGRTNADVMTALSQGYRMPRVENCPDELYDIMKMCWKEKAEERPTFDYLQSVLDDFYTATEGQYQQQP
Chain of MAP kinase-activated protein kinase 2 (P49137 whole entry, looked up): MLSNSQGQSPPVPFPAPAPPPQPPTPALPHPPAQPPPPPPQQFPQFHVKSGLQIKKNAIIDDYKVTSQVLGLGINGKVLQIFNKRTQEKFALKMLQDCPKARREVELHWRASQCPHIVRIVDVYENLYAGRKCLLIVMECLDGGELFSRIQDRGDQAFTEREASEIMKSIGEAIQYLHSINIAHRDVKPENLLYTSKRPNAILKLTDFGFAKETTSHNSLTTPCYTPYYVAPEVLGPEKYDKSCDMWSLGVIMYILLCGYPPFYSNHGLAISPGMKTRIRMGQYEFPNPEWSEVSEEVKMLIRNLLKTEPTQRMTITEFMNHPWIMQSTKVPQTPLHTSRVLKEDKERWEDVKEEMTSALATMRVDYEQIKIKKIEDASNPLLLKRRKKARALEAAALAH

COc1cc(Nc2nc(C)cc(-c3cnn4nc(OC)ccc34)n2)cc(C(F)(F)F)c1
% of control [1]: 100%

CN1Cc2nccc(-c3cn(C)nc3-c3ccc(F)cc3)c2C1=O
% of inhibition [2]: 3%

COc1cc(N(C)c2ccnc3ccc(C(F)(F)F)cc23)cc(OC)c1OC
% binding [3]: 90%

CN(C(=O)c1cnn2cccnc12)c1cc2c(cc1N1CCOCC1)C(=O)N(C[C@@H](F)C(C)(C)O)C2
dTM [4]: -0.3 K

CC[C@@H]1[C@H](F)C(=O)N[C@@H]1COc1nccc2cc(C(N)=O)c(OC)cc12 [ZIMLOVISERTIB]
% of inhibition ([5]; at 0.01 µM): -5.3%
% of inhibition ([5]; at 0.04 µM): 19.1%
% of inhibition ([5]; at 0.2 µM): -26.4%
% of inhibition ([5]; at 1 µM): 10.2%
% of inhibition ([5]; at 5 µM): 0.7%
% of inhibition [6]: 6.8%
% of inhibition [7]: 12.3%

CN(C)C/C=C/C(=O)Nc1ccc(C(=O)N2CCCC(Nc3ncc(Cl)c(-c4c[nH]c5ccccc45)n3)C2)cc1 (centres undefined)
% of control [8]: 81%
% of control [9]: 61%

C=CC(=O)Nc1cc(-n2c(=O)ccc3cnc4ccc(-c5ccc(NS(C)(=O)=O)cc5)cc4c32)ccc1C
% of control ([10]; at 1 µM): 85%
% of control ([10]; at 10 µM): 100%

Cc1cc([C@@H](C)Nc2ccccc2C(=O)O)c2nc(N3CCOCC3)cc(=O)n2c1 [AZD-6482]
% of control [11]: 100%

CN(C)CCOc1ccc(-c2nc(-c3ccncc3)c(-c3ccc4c(c3)CC/C4=N\O)[nH]2)cc1
% of control [12]: 88%

Cc1cc(C)cc([C@H]2c3cc(C)ccc3NC(=O)CN2C(=O)c2ccc(Br)s2)c1
% of activity ([13]; at 1 µM): 102%
% of activity ([13]; at 10 µM): 97.3%
